Results: article PMC5344125 (Nano letters, 2016)

System: LS174T secreted proteases
Assay: Secreted protease activity assay with conditioned supernatant
Assay type: biochemical, human
Details: fluorescently quenched substrates, MMP inhibitor added

## CNC(=O)[C@@H](NC(=O)[C@H](CC(C)C)[C@H](O)C(=O)NO)C(C)(C)C [Marimastat]
  in vitro proteolysis of substrates in the presence of Marimastat: abrogated
